US20260217697A1, “COMPOUNDS COMPRISING HETEROARYL RINGS AND COMPOSITIONS AND METHODS THEREOF” (lonGen Therapeutics Co., Ltd., priority 2022, published 2026)

Target: T1, hTRPV3 (Homo sapiens, UniProt Q8NET8)
T1 construct: The commercially available plasmid with the full-length cDNA of hTRPV3 (791 aa) (NM_001258205.2); host or cells: HEK293T
T1 sequence (Q8NET8 1-791 isoform Q8NET8-2): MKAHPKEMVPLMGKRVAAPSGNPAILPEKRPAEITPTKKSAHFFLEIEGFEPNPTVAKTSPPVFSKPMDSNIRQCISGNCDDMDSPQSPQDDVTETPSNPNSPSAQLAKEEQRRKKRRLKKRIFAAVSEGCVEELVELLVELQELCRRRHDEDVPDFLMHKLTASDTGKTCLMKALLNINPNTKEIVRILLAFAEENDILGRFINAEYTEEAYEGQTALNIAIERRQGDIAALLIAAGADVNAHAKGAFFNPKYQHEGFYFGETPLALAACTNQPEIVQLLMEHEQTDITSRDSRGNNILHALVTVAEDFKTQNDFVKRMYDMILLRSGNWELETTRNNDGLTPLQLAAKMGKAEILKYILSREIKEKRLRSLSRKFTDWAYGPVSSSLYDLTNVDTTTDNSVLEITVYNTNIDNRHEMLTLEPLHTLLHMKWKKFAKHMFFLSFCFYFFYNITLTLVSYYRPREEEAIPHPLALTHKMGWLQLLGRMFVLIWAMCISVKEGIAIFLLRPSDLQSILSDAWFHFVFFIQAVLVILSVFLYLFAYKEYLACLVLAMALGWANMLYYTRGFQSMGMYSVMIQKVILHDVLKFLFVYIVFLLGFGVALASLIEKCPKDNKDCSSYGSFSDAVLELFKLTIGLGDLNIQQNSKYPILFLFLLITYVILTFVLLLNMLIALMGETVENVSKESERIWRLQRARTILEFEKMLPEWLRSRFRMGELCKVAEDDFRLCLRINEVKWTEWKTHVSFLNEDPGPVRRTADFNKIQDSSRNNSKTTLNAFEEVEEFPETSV
Experiment: Whole-cell patch-clamp recording of hTRPV3 current in transfected HEK293T cells (2-APB induced)
Type: cell-based
Settings: current induced by 300 μM 2-APB, compounds tested up to 10 μM, room temperature
Summary of the method: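 HEK293T cells transiently expressing full-length hTRPV3, recorded by whole-cell patch clamp 18 h post-transfection at room temperature, with 130 mM NaCl/0.3 mM EDTA/3 mM HEPES pH 7.4 on both sides. Holding potential 0 mV; 400-ms steps to +80 and −80 mV every 2 s. Block of 2-APB-evoked current, tested up to 10 μM, fitted to Hill equation for IC50.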

| Compound | IC50 |
| --- | --- |
| COc1ncnc(OC)c1C(=O)Nc1nc2c(s1)C1(CNC1)Oc1cc(C(F)(F)F)ccc1-2 [compound 67, 4,6-dimethoxy-N-(7′-(trifluoromethyl)spiro[azetidine-3,4′-chromeno[4,3-d]thiazol]-2′-yl)pyrimidine-5-carboxamide] | ≥ 10000 nM |
| CCC1(CC)Oc2cc(C(F)(F)F)ccc2-c2nc(NC(=O)c3c(O)ncnc3OC)sc21 [compound 121, N-(4,4-diethyl-7-(trifluoromethyl)-4H-chromeno[4,3-d]thiazol-2-yl)-4-hydroxy-6-methoxypyrimidine-5-carboxamide] | ≥ 10000 nM |
| COc1ncnc(OC)c1C(=O)Nc1nc2c(s1)C1(CCN(C)CC1)Oc1cc(C(F)(F)F)ccc1-2 [compound 46, 4,6-dimethoxy-N-(1′-methyl-7-(trifluoromethyl)spiro[chromeno[4,3-d]thiazole-4,4′-piperidin]-2-yl)pyrimidine-5-carboxamide] | 1000 to 10000 nM |
| CCC1(CC)Oc2cc(C(F)(F)F)ccc2-c2nc(N3CN(C)c4ncnc(OC)c4C3=O)sc21 [compound 143, 3-(4,4-diethyl-7-(trifluoromethyl)-4H-chromeno[4,3-d]thiazol-2-yl)-5-methoxy-1-methyl-2,3-dihydropyrimido[4,5-d]pyrimidin-4 (1H)-one] | ≥ 10000 nM |
| CCC1(CC)Oc2cc(C(F)(F)F)ccc2-c2nc(NC(=O)c3cc(OC)nnc3Cl)sc21 [compound 89, 3-chloro-N-(4,4-diethyl-7-(trifluoromethyl)-4H-chromeno[4,3-d]thiazol-2-yl)-6-methoxypyridazine-4-carboxamide] | ≥ 10000 nM |
| COc1ncnc(OC)c1C(=O)Nc1nc2c(s1)C1(CCN(C(=O)OC(C)(C)C)C1)Oc1cc(C(F)(F)F)ccc1-2 (stereo not drawn) [compound 106, tert-butyl 2-(4,6-dimethoxypyrimidine-5-carboxamido)-7-(trifluoromethyl)spiro[chromeno[4,3-d]thiazole-4,3′-pyrrolidine]-1′-carboxylate] | 100 to 1000 nM |
| COc1ncnc(OC)c1C(=O)Nc1nc2c(s1)C1(CCN(S(C)(=O)=O)CC1)Oc1cc(C(F)(F)F)ccc1-2 [compound 73, 4,6-dimethoxy-N-(1′-(methylsulfonyl)-7-(trifluoromethyl)spiro[chromeno[4,3-d]thiazole-4,4′-piperidin]-2-yl)pyrimidine-5-carboxamide] | 1000 to 10000 nM |
| COc1ncnc(OC)c1C(=O)Nc1nc2c(s1)C1(CCCC(C)(C)C1)Oc1cc(C(F)(F)F)ccc1-2 (stereo not drawn) [compound 35, N-(3′,3′-dimethyl-7-(trifluoromethyl)spiro[chromeno[4,3-d]thiazole-4,1′-cyclohexan]-2-yl)-4,6-dimethoxypyrimidine-5-carboxamide] | 100 to 1000 nM |
| COc1ncnc(OC)c1C(=O)Nc1nc2c(s1)C(C)(CCc1ccccc1)Oc1cc(C(F)(F)F)ccc1-2 (stereo not drawn) [compound 42, 4,6-dimethoxy-N-(4-methyl-4-phenethyl-7-(trifluoromethyl)-4H-chromeno[4,3-d]thiazol-2-yl)pyrimidine-5-carboxamide] | 100 to 1000 nM |
| CCOC(=O)[C@H]1CC[C@]2(CC1)Oc1cc(Br)ccc1-c1nc(NC(=O)c3c(OC)ncnc3OC)sc12 [compound 128] | 100 to 1000 nM |
| CCC1(CC)Oc2cc(C)ccc2-c2nc(NC(=O)c3c(OC)ncnc3OC)sc21 [compound 124, N-(4,4-diethyl-7-methyl-4H-chromeno[4,3-d]thiazol-2-yl)-4,6-dimethoxypyrimidine-5-carboxamide] | 100 to 1000 nM |
| C=CCCC1Oc2cc(C(F)(F)F)ccc2-c2nc(NC(=O)c3c(OC)ncnc3OC)sc21 (stereo not drawn) [compound 28, N-(4-(but-3-en-1-yl)-7-(trifluoromethyl)-4H-chromeno[4,3-d]thiazol-2-yl)-4,6-dimethoxypyrimidine-5-carboxamide] | 100 to 1000 nM |
| COc1ncnc(OC)c1C(=O)Nc1nc2c(cnc3cc(C(F)(F)F)ccc32)s1 [compound 72, 4,6-dimethoxy-N-(7-(trifluoromethyl)thiazolo[5,4-c]quinolin-2-yl)pyrimidine-5-carboxamide] | 1000 to 10000 nM |

More lines, now with the values ahead:

| IC50 | Compound |
| --- | --- |
| 100 to 1000 nM | CCC1(CC)Oc2cc(C(F)(F)F)ccc2-c2nc(NC(=O)c3c(OC)ccnc3OC)sc21 [compound 98, N-(4,4-diethyl-7-(trifluoromethyl)-4H-chromeno[4,3-d]thiazol-2-yl)-2,4-dimethoxynicotinamide] |
| 100 to 1000 nM | COc1ncnc(OC)c1C(=O)Nc1nc2c(s1)C1(CN(C3COC3)C1)Oc1cc(C(F)(F)F)ccc1-2 [compound 160, 4,6-dimethoxy-N-(1-(oxetan-3-yl)-7′-(trifluoromethyl)spiro[azetidine-3,4′-chromeno[4,3-d]thiazol]-2′-yl)pyrimidine-5-carboxamide] |
| 100 to 1000 nM | C=CCCOc1ncnc(OC)c1C(=O)Nc1nc2c(s1)C1(CCCCC1)Oc1cc(C(F)(F)F)ccc1-2 [compound 43, 4-(but-3-en-1-yloxy)-6-methoxy-N-(7-(trifluoromethyl)spiro[chromeno[4,3-d]thiazole-4,1′-cyclohexan]-2-yl)pyrimidine-5-carboxamide] |
| 100 to 1000 nM | COc1ncnc(OC)c1C(=O)Nc1nc2c(s1)C1(CCC(F)(F)CC1)Oc1cc(C(F)(F)F)ccc1-2 [compound 40, N-(4′,4′-difluoro-7-(trifluoromethyl)spiro[chromeno[4,3-d]thiazole-4,1′-cyclohexan]-2-yl)-4,6-dimethoxypyrimidine-5-carboxamide] |
| 100 to 1000 nM | COc1ncnc(OC)c1C(=O)Nc1nc2c(s1)C(C)(C)N(C)c1cc(C(F)(F)F)ccc1-2 [compound 87, 4,6-dimethoxy-N-(4,4,5-trimethyl-7-(trifluoromethyl)-4,5-dihydrothiazolo[5,4-c]quinolin-2-yl)pyrimidine-5-carboxamide] |
| 100 to 1000 nM | COc1ncnc(OC)c1C(=O)Nc1nc2c(s1)C1(CCC(C(=O)N(C)Cc3ccccc3)CC1)Oc1cc(C(F)(F)F)ccc1-2 (stereo not drawn) [compound 126, N-benzyl-2-(4,6-dimethoxypyrimidine-5-carboxamido)-N-methyl-7-(trifluoromethyl)spiro[chromeno[4,3-d]thiazole-4,1′-cyclohexane]-4′-carboxamide] |
| 100 to 1000 nM | COc1ncnc(OC)c1C(=O)Nc1nc2c(s1)C1(CN(C(C)C)C1)Oc1cc(C#N)ccc1-2 [compound 148, N-(7′-cyano-1-isopropylspiro[azetidine-3,4′-chromeno[4,3-d]thiazol]-2′-yl)-4,6-dimethoxypyrimidine-5-carboxamide] |
| < 100 nM | COc1ncnc(OC)c1C(=O)Nc1nc2c(s1)C1(CN(C(=O)OC(C)(C)C)C1)Oc1cc(C(F)(F)F)ccc1-2 [compound 63, tert-butyl 2′-(4,6-dimethoxypyrimidine-5-carboxamido)-7′-(trifluoromethyl)spiro[azetidine-3,4′-chromeno[4,3-d]thiazole]-1-carboxylate] |
| 100 to 1000 nM | COc1ncnc(OC)c1C(=O)Nc1nc2c(s1)C1(CN(C(C)C)C1)Oc1cc(C(C)C)ccc1-2 [compound 145, N-(1,7′-diisopropylspiro[azetidine-3,4′-chromeno[4,3-d]thiazol]-2′-yl)-4,6-dimethoxypyrimidine-5-carboxamide] |
| 100 to 1000 nM | CCC1(CC)Oc2cc(C(F)(F)F)ccc2-c2nc(NC(=O)c3c(Cl)ncnc3OC)sc21 [compound 112, 4-chloro-N-(4,4-diethyl-7-(trifluoromethyl)-4H-chromeno[4,3-d]thiazol-2-yl)-6-methoxypyrimidine-5-carboxamide] |
| 100 to 1000 nM | [2H]C([2H])([2H])Oc1ncnc(OC([2H])([2H])[2H])c1C(=O)Nc1nc2c(s1)C(CC)(CC)Oc1cc(C(F)(F)F)ccc1-2 [compound 97, N-(4,4-diethyl-7-(trifluoromethyl)-4H-chromeno[4,3-d]thiazol-2-yl)-4,6-bis(methoxy-d3)pyrimidine-5-carboxamide] |
| < 100 nM | C=CCCC1(C)Oc2cc(C(F)(F)F)ccc2-c2nc(NC(=O)c3c(OC)ncnc3OC)sc21 (stereo not drawn) [compound 44, N-(4-(but-3-en-1-yl)-4-methyl-7-(trifluoromethyl)-4H-chromeno[4,3-d]thiazol-2-yl)-4,6-dimethoxypyrimidine-5-carboxamide] |
| < 100 nM | COc1ncnc(OC)c1C(=O)Nc1nc2c(s1)C1(CN(C3(OC)CC3)C1)Oc1cc(C(F)(F)F)ccc1-2 [compound 153, 4,6-dimethoxy-N-(1-(1-methoxycyclopropyl)-7′-(trifluoromethyl)spiro[azetidine-3,4′-chromeno[4,3-d]thiazol]-2′-yl)pyrimidine-5-carboxamide] |
| < 100 nM | COc1ncnc(OC)c1C(=O)Nc1nc2c(s1)C(CF)(CF)Oc1cc(C(F)(F)F)ccc1-2 [compound 100] |
